According to US4555522A, “Antithrombotic and/or antihypertensive compositions” (T & R Chemicals, Inc., priority 1983, dated 1985):
Like-named read-outs stand apart in the source and are kept apart here.

What was measured:
thrombotic disorders = assay: Treatment of thrombotic disorders in rats; format: in vivo, rat; details: aqueous suspension, e.g. 0.5 to 2.5 millimolar
Method: (§1) Dimethyl sulphite and diethyl sulphite are successively prepared by esterifying 2 moles of each respective alkanol with 1 mole of thionyl chloride. The diethyl ester is a colourless liquid (b.p. 159°) with an aromatic odour, believed to have the following formula: [drawing 17] A composition based on this compound, e.g. an aqueous suspension having a concentration in the range from 0.5 to 2.5 millimolar, is effective in the treatment of thrombotic and hypertensive disorders in rats. It is theorized to be activated in vivo by virtue of its conversion to sulphite ions.

[1] = tested on: platelet aggregation in platelet-rich plasma (PRP); assay: In vitro inhibition of platelet aggregation, method of Born; format: cell-based; details: Oryctolagus cuniculus, read-out: IC50 of diethyl sulphite
Method: (§2) In order to evaluate the effectiveness of diethyl sulphite as an anti-platelet aggregatory agent the following experiments are carried out.
(A) In vitro Platelet-rich plasma (PRP) is prepared from a rabbit and the IC50 value is determined according to the method of Born, "Nature", 194, 927-929 (1962). The IC50 is the estimated concentration of the agent necessary to inhibit 50 percent of the platelet aggregation. The data tabulated below is obtained.

platelet aggregation = assay: Ex vivo inhibition of platelet aggregation after injection into a rabbit; details: 219 mg injected, 3.06 kg rabbit, about 10 millimolar in blood, 10 minutes
Method: as §2
(B) Ex vivo A rabbit weighing 3.06 kg is injected with 219 mg of diethyl sulphite to give a concentration of about 10 millimolar diethyl sulphite in the blood. After 10 minutes, a blood sample is withdrawn and the percent inhibition of platelet aggregation, as compared to a blood sample taken before injection, is determined.

hypertensive disorders = assay: Treatment of hypertensive disorders in rats; format: in vivo, rat; details: aqueous suspension, e.g. 0.5 to 2.5 millimolar
Method: as §1

In the case of `CCOS(=O)OCC` [diethyl sulphite], the “effectiveness in the treatment of thrombotic disorders” value (thrombotic disorders) is reported as “effective”, the IC50 ([1]; stimulus: U-46619, rabbit PRP) is reported as 11 mM and the IC50 ([1]; stimulus: adenosine diphosphate (ADP), rabbit PRP) is reported as 35 mM. For the same molecule, the IC50 ([1]; stimulus: arachidonic acid, rabbit PRP) was 6.25 mM, the “percent inhibition of platelet aggregation” value (“percent inhibition” for short) (platelet aggregation; stimulus: ADP) was 29% and the “percent inhibition” value (platelet aggregation; stimulus: U-46619) was 12%. For the same molecule, the “percent inhibition” value (platelet aggregation; stimulus: arachidonic acid) was 0% and the “effectiveness in the treatment of hypertensive disorders” value (hypertensive disorders) was “effective”.
